# Source: patent publication EP4364730A1, “PHARMACEUTICAL COMPOSITION COMPRISING L-ACETYL CARNITINE AND BETA-CARYOPHYLLENE” (Chiesi Italia S.p.A., priority 2022, dated 2024)
# Test system: HMC3 cell line
# Test: Cell viability test (MTT assay)
# Type: cell-based, Homo sapiens, human
# Conditions: HMC3 cells, tested 0.039 to 100 µM
# Procedure: The American Type Culture Collection's HMC3 (CRL-3304) cell line was grown in the MEM growth medium supplemented with 10% fetal bovine serum (FBS), 100 U/mL penicillin, and 100 µg/mL streptomycin (complete medium). The cells were kept at 37 °C in a 5% CO2 incubator and grown up to 100% confluence before use. In particular, regarding BCP, cells were treated with this substance at concentrations ranging from 0.039 to 100 µM (9 concentrations). Regarding LAC, cells were treated with this substance at concentrations ranging from 0.06 to 30 mM (9 concentrations). […] The MTT cell viability test was performed by seeding 1 × 10^4 cells/well in a 96-multiwell and grown at 37 °C and 5% CO2. The next day, cells were treated with different concentrations of BCP and LAC and their combinations (Mix). […] The formazane crystals were then solubilized with 100 µL DMSO/well for 15 min and the absorbance was measured at the wavelength of 570 nm using a Multiskan™ GO microplate reader (Thermo Scientific Microplate Spectrophotometer). Finally, the cytotoxicity of the substances in combination was evaluated starting from the maximum non-cytotoxic concentrations of each molecule (BCP and LAC alone) (Table 1).
smiles,measurement,value
"C=C1CC/C=C(\C)CC[C@@H]2[C@@H]1CC2(C)C [BCP, (1R,4E,9S)-4,11,11-trimethyl-8-methylidenebicyclo[7.2.0]undec-4-ene]",maximum non-cytotoxic concentration,100 µM
